Measured values from EP1806135A2, “The use of a protein tyrosine inhibitor such as genistein in the treatment of diabetic retinopathy or ocular inflammation” (THE JOHNS HOPKINS UNIVERSITY SCHOOL OF MEDICINE, priority 1998, dated 1999).

Columns and labels:
pigmented rabbits = test: Ocular inflammation (vitreous cavity haze) after intravitreal injection of homologous dermal fibroblasts; assay type: in vivo, rabbit; settings: graded 3 days after fibroblast injection
Protocol: The principles of laboratory animal care (NIH publication No. 86-23, revised 1985) were followed. For all studies, pigmented rabbits, weighing 2.5-3 kg were used. The animals were anesthetized with a cocktail of ketamine (25 mg/kg) and xylazine (5 mg/kg), and the pupils were dilated with topical 1 % tropicamide and 0.5% phenylephrine.
Vitreous liquefaction was caused by injection of SF6 gas. After an anterior chamber paracentesis (0.1 ml), pure SF6 gas (0.3 ml) was injected. The 30-gauge needle was inserted inferiorly in order to maximize the vitreous liquefaction.
Rabbit dermal fibroblasts were obtained from rabbit rump biopsy material prepared under sterile conditions: Primary cultures were incubated in Dulbecco's modified Eagle's medium (DMEM) with 30% calf serum, antibiotics (penicillin G sodium, streptomycin sulfate) and antimycotics (amphotericin B) under a humid atmosphere of 5% carbon dioxide in air for 72 hours. The medium was then changed to DMEM with 10% calf serum, antibiotics and antimycotics as above. The cultures were passaged weekly. Cells were harvested by incubating them with 3.5 ml of 0.04% trypsin for 4 minutes and collecting the cells in stop media. The dispersed cells were centrifuged at 1,000 rpm for 5 minutes and resuspended in 1 ml of phosphate-buffered saline. After cell counts of a 0.05 ml aliquot, the suspension was diluted to achieve a final concentration of 2.5x10^4 cells in a 0.1 ml of phosphate-buffered saline.
Fourteen days after the injection of SF6 gas, a 30-gauge needle was inserted 3 mm posterior to the corneoscleral limbus in the superonasal quadrant under microscopic control. With the bevel of the needle directed upward, 2.5x10^4 homologous rabbit dermal fibroblasts suspended in 0.1 ml sterile phosphate-buffered saline were injected just in front of the optic nerve head. This was performed in both eyes of all rabbits. The rabbits were immediately placed on their backs for 1 hour to allow the cells to settle over the vitreous surface. […]

retina = test: Retinal toxicity by electroretinography after oral administration; assay type: in vivo; settings: orally administered, 75 mg/kg/day to 300 mg/kg/day over a period of six months, Zucker diabetic fatty rats
Source text: (§1) An advantage of genistein is that it is very safe and efficacious. […] Also, no effect of orally administered genistein was found with respect to the weight of the ovaries and the uterus in female rats.

[1] = Food intake, body weight and organ weights after oral administration; assay type: in vivo, rats
Source text: as §1

67 kDa band = test: Total protein profile of retinal homogenate (gel electrophoresis, Coomassie brilliant blue staining); assay type: in vivo; settings: 50 mg/kg intraperitoneally, repeated after two hours; retina taken 24 hours later; Zucker diabetic fatty rat
Source text: (§2) Six pair of litter mates of Zucker rats, i.e., six male retired breeder Zucker diabetic fatty (ZDF, fa/fa) rats and six male retired breeder lean Zucker (fa/+) rats, were obtained (Genetic Models, Inc., Indianapolis, IN). The Zucker diabetic fatty rat develops a microvascular retinopathy involving basement membrane thickening of retinal capillaries, pericyte loss, capillary hypercellularity, and increased endothelial intercellular junctions (Danis et al., Invest. Ophthalmol. Vis. Sci. 34:2367-2371 (1993); and Dosso et al., Diabetologia 33:137-144 (1990)). The microvascular changes known to occur in the Zucker diabetic fatty rats are associated with the elevated levels of VEGF and platelet-derived growth factor (PDGF) and with activation of PTK pathways, especially pathways that include phosphatidylinositol-3 kinase (PI3-K) and mitogen-activated protein kinase (MAPK). Each pair of litter mates was between six and seven months of age. Rats were fed with a diet of Purina 5008 rat chow. […] The average blood glucose value was more than 500 mg/dl for the Zucker diabetic fatty rats and 120 mg/dl for the control lean rats as measured by glucose oxidase assay at the time of death (Danis et al. (1993), supra). […]
Protein concentrations were measured by the Pierce BCA method. […]

[2] = tested on: tyrosine phosphorylated proteins; test: Western immunoblot analysis of tyrosine phosphorylated proteins in the retina; assay type: in vivo, Zucker diabetic fatty rat; settings: 50 mg/kg intraperitoneally, repeated after two hours; diabetic rats compared with the non-treated group
Source text: (§3) Six pair of litter mates of Zucker rats, i.e., six male retired breeder Zucker diabetic fatty (ZDF, fa/fa) rats and six male retired breeder lean Zucker (fa/+) rats, were obtained (Genetic Models, Inc., Indianapolis, IN). The Zucker diabetic fatty rat develops a microvascular retinopathy involving basement membrane thickening of retinal capillaries, pericyte loss, capillary hypercellularity, and increased endothelial intercellular junctions (Danis et al., Invest. Ophthalmol. Vis. Sci. 34:2367-2371 (1993); and Dosso et al., Diabetologia 33:137-144 (1990)). The microvascular changes known to occur in the Zucker diabetic fatty rats are associated with the elevated levels of VEGF and platelet-derived growth factor (PDGF) and with activation of PTK pathways, especially pathways that include phosphatidylinositol-3 kinase (PI3-K) and mitogen-activated protein kinase (MAPK). Each pair of litter mates was between six and seven months of age. Rats were fed with a diet of Purina 5008 rat chow. The animals were treated in accordance with The Association for Research in Vision and Ophthalmology (ARVO) Statement for the Use of Animals in Ophthalmic and Vision Research. The average blood glucose value was more than 500 mg/dl for the Zucker diabetic fatty rats and 120 mg/dl for the control lean rats as measured by glucose oxidase assay at the time of death (Danis et al. (1993), supra). […]

PI3-K = test: Western immunoblot analysis of immunoprecipitated tyrosine phosphorylated proteins in the retina: PI3-K; assay type: in vivo, Zucker diabetic fatty rat; settings: 50 mg/kg intraperitoneally, repeated after two hours; especially in the diabetic rat
Source text: as §2, with “(MAPK).” for “(MAPK). Each pair of litter mates was between six and seven months of age. Rats were fed with a diet of Purina 5008 rat chow.”
(§4) The retinal tissue samples were added to immunoprecipitation buffer (1 % Triton X-100, 150 mM NaCl, 10 mM Tris, pH 7.4, 1 mM EGTA, 0.2 mM sodium vanadate, 0.2 mM PMSF, 0.5 % NP-40) and homogenized. […] Protein concentrations were measured by the Pierce BCA method. […]

MAPK = test: Western immunoblot analysis of immunoprecipitated tyrosine phosphorylated proteins in the retina: MAPK; assay type: in vivo, Zucker diabetic fatty rat; settings: 50 mg/kg intraperitoneally, repeated after two hours; treated group compared with the non-treated animals group
Source text: as §2, with “(MAPK).” for “(MAPK). Each pair of litter mates was between six and seven months of age. Rats were fed with a diet of Purina 5008 rat chow.”
as §4

PCNA [3] = test: Western immunoblot analysis of PCNA in the retina; assay type: in vivo; settings: 50 mg/kg intraperitoneally, repeated after two hours; Zucker diabetic fatty rat retina; not down to the lean control level
Source text: as §3

PCNA [4] = test: Immunohistochemical analysis of PCNA in the retina; assay type: in vivo; settings: genistein treated diabetic rats compared with untreated Zucker diabetic fatty rats
Protocol: Two pairs of rats were used for immunohistochemical analysis of PCNA in the retina. Under deep anesthesia with ketamine and xylazine, the four rats were perfused transcardially with 0.1 M phosphate-buffered saline (PBS; pH 7.4) containing 1 mM orthovanadate, followed by perfusion of 2 % paraformaldehyde in 0.1 M PBS for fixation. The eyes were then removed and immersed in the same fixative for 30 min. The anterior segments were removed and the posterior segments were transferred into a graded sucrose solution from 5 % to 15 % for 2 hrs and incubated in 20 % sucrose solution overnight at 4°C. After cryoprotection, the eyes were molded in O.C.T. compound (Miles, Inc., Elkhart, IN) and frozen in isopentane with dry ice. The posterior segments were cut into 8 µm sections.
The sections were treated with 3 % peroxide to block intrinsic peroxidase, and incubated with 2 % normal horse serum for 20 min. After rinsing in 0.1 M PBS three times, the sections were incubated overnight at 4°C with anti-PCNA antibody (1:1,000 dilution). After the incubation, the sections were rinsed in 0.1 M PBS, and incubated with biotinylated anti-mouse IgG antibody (Vector Laboratories, Inc., Burlingame, CA; 1:500 dilution) for 30 min at room temperature, and then incubated with […] streptavidin (Kirkegaad & Perry Laboratories, Inc., Gaithersburg, MD; 1:500 dilution). […]

[5] = oral administration, male and female rats
[6] = orally administered, female rats

Structure (SMILES) | eyes with severe inflammation (vitreous haze) (pigmented rabbits; group 1: 23 µg intravitreally 1 hour (prophylactic) after fibroblast injection, control eyes 47.1%, p<0.01) [%] | eyes with severe inflammation (vitreous haze) (pigmented rabbits; group 2: 23 µg intravitreally 2 days (therapeutic) after fibroblast injection, control eyes 50%, p>0.05) [%] | eyes with severe inflammation (vitreous haze) (pigmented rabbits; group 3: 11.5 µg intravitreally at 1 hour and again 2 days after fibroblast injection, control eyes 77.8%, p<0.05) [%] | toxicity to the retina as measured by electroretinography (retina) | body weight [1, 5] | food intake [1, 5] | weight of the ovaries [1, 6] | weight of the uterus [1, 6] | amount of staining of the 67 kDa band in total protein profiles (67 kDa band) | staining of tyrosine phosphorylated proteins at 50, 66, 97 and 116 kDa [2] | tyrosine phosphorylated PI3-K stained band at 85 kDa (PI3-K) | level of tyrosine phosphorylated MAPK at 44 kDa (MAPK) | level of PCNA at 36 kDa (PCNA [3]) | PCNA immunopositive cells in the retina (PCNA [4])
COC1C=CC=C(C)C(=O)NC2=CC(=O)C=C(C2=O)C(OC)C(C)CC(OC)C(OC)C(C)C=C(C)C1OC(N)=O (centres unmarked) [HA, Herbimycin A] | 0 | 10 | 22.2 |  |  |  |  |  |  |  |  |  |  | 
O=c1c(-c2ccc(O)cc2)coc2cc(O)cc(O)c12 [genistein, 5,7-dihydroxy-3-(4-hydroxyphenyl)-4H-1-benzopyran-4-one] |  |  |  | nontoxic to the retina | no effect | no effect | no effect | no effect | reduced | decreased staining at each molecular weight | reduced | decreased | reduced this increase | fewer immunopositive cells were detected
